Source: patent US11401270B2, “Alcoxyamino derivatives for treating pain and pain related conditions” (ESTEVE PHARMACEUTICALS, S.A., priority 2017, dated 2022)
Like-named read-outs stand apart in the source and are kept apart here.

Legend:
[1] = target: Human norepinephrine transporter (NET) (Homo sapiens (Human), UniProt P23975); test: Binding Assay to Human Norepinephrine Transporter (NET); conditions: Table 2, dual compounds; human NET enriched membranes, 5 nM [3H]-Nisoxetin; read-out: Ki(nM) NET Hum
Chain of Human norepinephrine transporter (NET) (P23975 whole entry): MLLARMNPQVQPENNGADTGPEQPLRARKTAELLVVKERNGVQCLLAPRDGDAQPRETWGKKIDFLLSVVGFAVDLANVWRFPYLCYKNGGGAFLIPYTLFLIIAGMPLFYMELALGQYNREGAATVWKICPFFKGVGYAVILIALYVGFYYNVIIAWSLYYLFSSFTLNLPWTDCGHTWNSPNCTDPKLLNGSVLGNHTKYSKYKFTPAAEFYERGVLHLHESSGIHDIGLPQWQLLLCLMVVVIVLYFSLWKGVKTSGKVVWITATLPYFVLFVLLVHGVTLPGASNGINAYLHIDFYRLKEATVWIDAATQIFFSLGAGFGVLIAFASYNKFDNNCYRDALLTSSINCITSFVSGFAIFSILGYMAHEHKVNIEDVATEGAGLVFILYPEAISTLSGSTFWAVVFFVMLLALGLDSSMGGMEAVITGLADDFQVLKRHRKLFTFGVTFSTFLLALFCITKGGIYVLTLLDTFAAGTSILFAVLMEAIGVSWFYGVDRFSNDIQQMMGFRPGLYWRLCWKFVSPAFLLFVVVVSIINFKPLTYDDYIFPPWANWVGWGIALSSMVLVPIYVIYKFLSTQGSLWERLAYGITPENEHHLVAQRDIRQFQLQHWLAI
Method: Binding Assay to Human Norepinephrine Transporter (NET).
Human norepinephrine transporter (NET) enriched membranes (5 μg) were incubated with 5 nM of radiolabeled [3H]-Nisoxetin in assay buffer containing 50 mM Tris-HCl, 120 mM NaCl, 5 mM KCl, pH 7.4.
NSB (non specific binding) was measured by adding 10 μM desipramine. The binding of the test compound was measured in five different concentrations. After 60 min incubation at 4° C., binding reaction was terminated by filtering through Multiscreen GF/C (Millipore) presoaked in 0.5% polyethyleneimine in Vacuum Manifold Station, followed by 3 washes with ice-cold filtration buffer containing 50 mM Tris-HCl, 0.9% NaCl, pH 7.4.
Filter plates were dried at 60° C. for 1 hour and 30 μl of scintillation cocktail were added to each well before radioactivity reading.

[2] = target: Human α2δ-1 subunit of Cav2.2 calcium channel (Homo sapiens (Human), UniProt P54289); test: Binding Assay to Human α2δ-1 Subunit of Cav2.2 Calcium Channel; conditions: human α2δ-1 enriched membranes, 15 nM [3H]-Gabapentin, read-out: Ki(nM) alpha2delta Hum
Chain of Human α2δ-1 subunit of Cav2.2 calcium channel (P54289 25-1103): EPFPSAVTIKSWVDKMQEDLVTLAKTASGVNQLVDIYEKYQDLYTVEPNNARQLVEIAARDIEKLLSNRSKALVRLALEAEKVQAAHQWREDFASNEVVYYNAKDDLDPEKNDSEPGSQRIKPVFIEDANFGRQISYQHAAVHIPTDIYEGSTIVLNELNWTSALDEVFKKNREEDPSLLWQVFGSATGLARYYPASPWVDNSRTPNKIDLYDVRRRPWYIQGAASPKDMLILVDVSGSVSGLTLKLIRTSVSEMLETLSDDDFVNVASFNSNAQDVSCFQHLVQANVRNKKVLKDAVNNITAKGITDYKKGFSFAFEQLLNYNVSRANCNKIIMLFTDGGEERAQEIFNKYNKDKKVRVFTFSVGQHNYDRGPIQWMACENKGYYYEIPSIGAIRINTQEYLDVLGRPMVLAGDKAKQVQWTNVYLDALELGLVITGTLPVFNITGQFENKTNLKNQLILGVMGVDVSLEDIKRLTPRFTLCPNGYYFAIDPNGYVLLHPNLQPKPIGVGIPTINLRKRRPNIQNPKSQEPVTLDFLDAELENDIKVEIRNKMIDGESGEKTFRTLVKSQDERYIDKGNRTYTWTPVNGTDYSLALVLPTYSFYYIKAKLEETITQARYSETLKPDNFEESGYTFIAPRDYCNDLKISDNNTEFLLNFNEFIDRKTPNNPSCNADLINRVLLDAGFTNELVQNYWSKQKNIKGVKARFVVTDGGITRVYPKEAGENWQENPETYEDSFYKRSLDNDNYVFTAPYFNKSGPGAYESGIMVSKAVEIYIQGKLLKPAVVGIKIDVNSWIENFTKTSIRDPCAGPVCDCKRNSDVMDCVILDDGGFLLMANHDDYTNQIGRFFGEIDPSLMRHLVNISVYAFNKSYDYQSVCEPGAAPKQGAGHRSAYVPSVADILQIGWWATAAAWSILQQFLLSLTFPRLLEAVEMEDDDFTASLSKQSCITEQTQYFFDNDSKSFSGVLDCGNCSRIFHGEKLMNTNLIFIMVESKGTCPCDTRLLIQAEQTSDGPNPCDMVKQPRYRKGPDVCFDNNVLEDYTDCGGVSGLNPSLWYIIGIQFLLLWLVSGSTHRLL
Procedure, shortened: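 Radioligand filtration binding at the α2δ-1 subunit, test compound at five concentrations; nonspecific binding defined with 10 μM pregabalin. Incubated 60 min at 27 °C, stopped by GF/C filtration (0.5% PEI presoaked) with ice-cold 50 mM Tris-HCl pH 7.4 washes; bound radioactivity counted by scintillation.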

Row | Compound | Ki [1] [nM] | Ki ([2]; Table 1) [nM] | Ki ([2]; Table 2, dual compounds) [nM]
1 | CNCCC(Oc1ccc(CN2CCN(C)c3ncccc3C2=O)cc1)c1ccc(F)cc1 (stereo not drawn) [Example 115, 4-(4-(1-(4-Fluorophenyl)-3-(methylamino)propoxy)benzyl)-1-methyl-1,2,3,4-tetrahydro-5H-pyrido[2,3-e][1,4]diazepin-5-one] | < 100 | 500 to 3000 | 500 to 3000
2 | CNCCC(Oc1ccc(CN2CCN(C)c3ncccc3C2=O)cc1)c1cccc(F)c1 (stereo not drawn) [Example 117, 4-(4-(1-(3-Fluorophenyl)-3-(methylamino)propoxy)benzyl)-1-methyl-1,2,3,4-tetrahydro-5H-pyrido[2,3-e][1,4]diazepin-5-one] | < 100 | 100 to 500 | 100 to 500
3 | CNCCC(OCc1cccc(N2CCN(C)CCC2=O)c1)c1ccccc1 (stereo not drawn) [Example 34, 1-Methyl-4-(3-((3-(methylamino)-1-phenylpropoxy)methyl)phenyl)-1,4-diazepan-5-one] | 100 to 500 | 500 to 3000 | 500 to 3000
4 | CNCC[C@H](Oc1ccc(CN2CCN(C)c3nc(OC)ccc3C2=O)cc1)c1cccs1 [Example 94, (S)-8-methoxy-1-methyl-4-(4-(3-(methylamino)-1-(thiophen-2-yl)propoxy)benzyl)-1,2,3,4-tetrahydro-5H-pyrido[2,3-e][1,4]diazepin-5-one] | 100 to 500 | 100 to 500 | 100 to 500
5 | CNCCC(Oc1ccc(CN2CCN(C)c3ncccc3C2=O)c(F)c1)c1cccc(F)c1 (stereo not drawn) [Example 123, 4-(2-Fluoro-4-(1-(3-fluorophenyl)-3-(methylamino)propoxy)benzyl)-1-methyl-1,2,3,4-telrahydro-5H-pyrido[2,3-e][1,4]diazepin-5-one] | < 100 | < 100 | < 100
6 | CNCCC(Oc1ccc(CN2CCN(C)c3nc(C)ccc3C2=O)cc1)c1cccs1 (stereo not drawn) [Example 100, 1,8-Dimethyl-4-(4-(3-(methylamino)-1-(thiophen-2-yl)propoxy)benzyl)~ 1,2,3,4-tetrahydro-5H-pyrido[2,3-e][1,4]diazepin-5-one] | 500 to 1000 | 100 to 500 | 100 to 500
7 | CNCC[C@H](Oc1ccc(CN2CCN(C)c3ncccc3C2=O)c(Cl)c1)c1cccc(F)c1 [Example 149, (S)-4-(2-chloro-4-(1-(3-fluorophenyl)-3-(methylamino)propoxy)benzyl)-1-methyl-1,2,3,4-tetrahydro-5H-pyrido[2,3-e][1,4]diazepin-5-one] | < 100 | < 100 | < 100
8 | CNCCC(Oc1ccc(CN2CCN(C)c3ncccc3C2=O)cc1)c1cccs1 (stereo not drawn) [Example 99, 1-Methyl-4-(4-(3-(methylamino)-1-(thiophen-2-yl)propoxy)benzyl)-1,2,3,4-tetrahydro-5H-pyrido[2,3-e][1,4]diazepin-5-one] | < 100 | < 100 | < 100
9 | CCNC[C@H]1CC(=O)N(c2cccc(O[C@@H](CCNC)c3cccs3)c2)CCN1C [Example 86, (R)-7-((ethylamino)methyl)-1-methyl-4-(3-((S)-3-(methylamino)-1-(thiophen-2-yl)propoxy)phenyl)-1,4-diazepan-5-one] | 100 to 500 | 500 to 3000 | 500 to 3000
10 | CNCC[C@H](Oc1ccc(CN2CCN(C)c3ncccc3C2=O)c(Cl)c1)c1ccccc1 [Example 141, (S)-(2-chloro-4-(3-(methylamino)-1-phenylpropoxy)benzyl)-1-methyl-1,2,3,4-telrahydro-5H-pyrido[2,3-e][1,4]diazepin-5-one] | < 100 | < 100 | < 100
11 | CNCC[C@H](Oc1ccc(CN2CCN(C)c3ncccc3C2=O)c(F)c1)c1cccc(F)c1 [Example 136, (S)-4-(2-fluoro-4-(1-(3-fluorophenyl)-3-(methylamino)propoxy)benzyl)-1-methyl-1,2,3,4-tetrahydro-5H-pyrido[2,3-e][1,4]diazepin-5-one] | < 100 | < 100 | < 100
12 | CNCCC(Oc1cccc(N2CCN(C(C)C)CCC2=O)c1)c1ccsc1 (stereo not drawn) [Example 75, 1-Isopropyl-4-(3-(3-(methylamino)-1-(thiophen-3-yl)propoxy)phenyl)-1,4-diazepan-5-one] | 100 to 500 | 100 to 500 | 100 to 500
13 | CNCC[C@H](Oc1ccc(CN2CCCn3nc(OC)cc3C2=O)c(C)c1)c1cccs1 [Example 134, (S)-2-methoxy-5-(2-methyl-4-(3-(methylamino)-1-(thiophen-2-yl)propoxy)benzyl)-5,6,7,8-tetrahydro-4H-pyrazolo[1,5-a][1,4]diazepin-4-one] | < 100 | < 100 | < 100
14 | CNCC[C@H](Oc1cccc(N2CCN(C)c3nc(C)ccc3C2=O)c1)c1ccsc1 [Example 80, (S)-1,8-dimethyl-4-(3-(3-(methylamino)-1-(thiophen-3-yl)propoxy)phenyl)-1,2,3,4-tetrahydro-5H-pyrido[2,3-e][1,4]diazepin-5-one] | < 100 | 100 to 500 | 100 to 500
15 | CNCC[C@H](Oc1cccc(N2CCN(C)c3nc(C(F)(F)F)ccc3C2=O)c1)c1cccs1 [Example 81, (S)-1-methyl-4-(3-(3-(methylamino)-1-(thiophen-2-yl)propoxy)phenyl)-8-(trifiuoromethyl)-1.2.3,4-tetrahydro-5H-pyrido[2.3-e][1,4]diazepin-5-one] | 500 to 1000 | 100 to 500 | 100 to 500
16 | CNCCC(Oc1cccc(CN2CCN(C)c3ccccc3C2)c1)c1cccs1 (stereo not drawn) [Example 1, N-methyl-3-(3-((1-methyl-1,2,3,5-tetrahydro-4H-benzo[e][1,4]diazepin-4-yl)methyl)phenoxy)-3-(thiophen-2-yl)propan-1-amine] | 500 to 1000 | 100 to 500 | 100 to 500
17 | CNCCC(OCc1cccc(N2CCN(C)CCC2=O)c1)c1cccs1 (stereo not drawn) [Example 84, 1-Methyl-4-(3-((3-(methylamino)-1-(thiophen-2-yl)propoxy)methyl)phenyl)-1,4-diazepan-5-one] | 100 to 500 | 500 to 3000 | 500 to 3000
18 | CCN1CCC(=O)N(c2cccc(OC(CCNC)c3cccs3)c2)CC1 (stereo not drawn) [Example 58, 1-Ethyl-4-(3-(3-(methylamino)-1-(thiophen-2-yl)propoxy)phenyl)-1,4-diazepan-5-one] | 100 to 500 | 500 to 3000 | 500 to 3000
19 | CNCC[C@H](Oc1ccc(CN2CCN(C)c3nc(O)ccc3C2=O)c(F)c1)c1ccccc1 [Example 142, (S)-4-(2-fluoro-4-(3-(methylamino)-1-phenylpropoxy)benzyl)-8-hydroxy-1-methyl-1,2,3,4-tetrahydro-5H-pyrido[2,3-e][1,4]diazepin-5-one] | < 100 | > 3000 | > 3000
20 | CNCC[C@H](Oc1ccc(CN2CCCn3nc(C)cc3C2=O)c(F)c1)c1ccccc1 [Example 139, (S)-5-(2-fluoro-4-(3-(methylamino)-1-phenylpropoxy)benzyl)-2-methyl-5,6,7,8-tetrahydro-4H-pyrazolo[1,5-a][1,4]diazepin-4-one] | < 100 | 100 to 500 | 100 to 500
21 | CCNc1ccc2c(n1)N(C)CCN(Cc1ccc(OC(CCNC)c3ccccc3)cc1)C2=O (stereo not drawn) [Example 111, 8-(Ethylamino)-1-methyl-4-(4-(3-(methylamino)-1-phenylpropoxy)benzyl)-1,2,3,4-tetrahydro-5H-pyrido[2,3-e][1,4]diazepin-5-one] | < 100 | 500 to 3000 | 500 to 3000
22 | CNCC[C@H](Oc1ccc(CN2CCN(C)c3cccnc3C2=O)cc1)c1cccs1 [Example 97, (S)-1-methyl-4-(4-(3-(methylamino)-1-(thiophen-2-yl)propoxy)benzyl)-1,2,3,4-tetrahydro-5H-pyrido[3,2-e][1,4]diazepin-6-one] | 100 to 500 | 500 to 3000 | 500 to 3000
23 | CNCC[C@H](Oc1ccc(CN2CCN(C)c3ccccc3C2=O)cc1)c1cccs1 [Example 98, (S)-1-methyl-4-(4-(3-(methylamino)-1-(thiophen-2-yl)propoxy)benzyl)-1,2,3,4-tetrahydro-5H-benzo[e][1,4]diazepin-5-one] | 100 to 500 | 500 to 3000 | 500 to 3000
24 | CNCCC(Oc1cccc(C(=O)N2CCCN(C)CC2)c1)c1ccccc1 (stereo not drawn) [Example 3, (4-Methyl-1,4-diazepan-1-yl)(3-(3-(methylamino)-1-phenylpropoxy)phenyl)methanone] | 100 to 500 | 500 to 3000 | 500 to 3000
25 | CNCC[C@H](Oc1ccc(CN2CCN(C)c3ncccc3C2=O)c(Cl)c1)c1cccs1 [Example 126, (S)-4-(2-chloro-4-(3-(methylamino)-1-(thiophen-2-yl)propoxy)benzyl)-1-methyl-1,2,3,4-tetrahydro-5H-pyrido[2,3-e][1,4]diazepin-5-one] | < 100 | < 100 | < 100
26 | CNCC[C@H](Oc1ccc(CN2CCN(C)c3nc(OC)ccc3C2=O)c(F)c1)c1ccccc1 [Example 132, (S)-4-(2-fluoro-4-(3-(methylamino)-1-phenylpropoxy)benzyl)-8-methoxy-1-methyl-1,2,3,4-tetrahydro-5H-pyrido[2,3-e][1,4]diazepin-5-one] | < 100 | 100 to 500 | 100 to 500
